# Measurements: ChEMBL document CHEMBL1153072, “Synthesis and structure-activity relationship of dicationic diaryl ethers as novel potent anti-MRSA and anti-VRE agents” (2009)
# Key:
# Type in all cases: functional
# [1] = tested on: Bacillus cereus; test: Antibacterial activity against Bacillus cereus ATCC 11778
# [2] = tested on: Enterococcus faecalis; test: Antibacterial activity against vancomycin-resistant Enterococcus faecalis ATCC 51575
# [3] = tested on: Staphylococcus aureus; test: Antibacterial activity against Staphylococcus aureus ATCC 29213
# [4] = tested on: Staphylococcus epidermidis; test: Antibacterial activity against Staphylococcus epidermidis ATCC 12228
# [5] = tested on: Staphylococcus epidermidis; test: Antibacterial activity against methicillin-resistant Staphylococcus epidermidis ATCC 51625
# [6] = tested on: Staphylococcus aureus; test: Antibacterial activity against multidrug resistant Staphylococcus aureus BAA-39
# [7] = tested on: Staphylococcus aureus; test: Antibacterial activity against methicillin-resistant Staphylococcus aureus ATCC 33591
# [8] = Ratio of MIC for Candida albicans ATCC 90028 to MIC for vancomycin-resistant Enterococcus faecium ATCC 700221
# [9] = tested on: Bacteroides fragilis; test: Antibacterial activity against […] ATCC 23745
# [10] = tested on: Candida albicans; test: Antifungal activity against Candida albicans ATCC 90028
# [11] = Ratio of MIC for Candida albicans ATCC 90028 to MIC for methicillin-resistant Staphylococcus aureus ATCC 33591
# [12] = tested on: Bacillus subtilis; test: Antibacterial activity against Bacillus subtilis ATCC 23857
# [13] = tested on: Enterococcus faecium; test: Antibacterial activity against vancomycin-resistant Enterococcus faecium ATCC 700221
# [14] = tested on: Clostridium perfringens; test: Antibacterial activity against Clostridium perfringens ATCC 10388
# [15] = tested on: Streptococcus pneumoniae; test: Antibacterial activity against Streptococcus pneumoniae ATCC 6301
SMILES,MIC [1] [µg/mL],MIC [2] [µg/mL],MIC [3] [µg/mL],MIC [4] [µg/mL],MIC [5] [µg/mL],MIC [6] [µg/mL],MIC [7] [µg/mL],Ratio [8],MIC [9] [µg/mL],MIC [10] [µg/mL],Ratio [11],MIC [12] [µg/mL],MIC [13] [µg/mL],MIC [14] [µg/mL],MIC [15] [µg/mL]
N=C(c1ccc2[nH]c(-c3ccc(Oc4ccc(-c5nc6cc(C(=N)N7CCSCC7)ccc6[nH]5)cc4)cc3)nc2c1)N1CCSCC1,0.5,0.5,0.5,0.12,0.25,0.5,0.25,32,4,16,32,0.25,0.5,1,0.25
CC(C)NC(=N)c1ccc2cc(-c3ccc(Oc4ccc(-c5cc6ccc(C(=N)NC(C)C)cc6[nH]5)cc4)cc3)[nH]c2c1,≤ 0.06,0.25,0.12,≤ 0.06,≤ 0.06,≤ 0.06,≤ 0.06,–,0.125,0.5,8,≤ 0.06,≤ 0.06,0.5,≤ 0.06
N=C(c1ccc2[nH]c(-c3ccc(Oc4ccc(-c5nc6cc(C(=N)N7CCOCC7)ccc6[nH]5)cc4)cc3)nc2c1)N1CCOCC1,0.12,0.5,1,0.25,0.5,0.5,0.5,–,8,16,–,0.5,0.5,2,0.5
